What is called melting point is the temperature of the solid-liquid transition.

As for `CCn1c(=O)n(O)c(=O)c2cc(F)c(N3CCCCC3)cc21`, the melting point lay in the range of 173 to 175 °C. With `Cc1ccccc1C(=O)Cc1ccncc1` the figure was 118 to 119 °C. `CSc1ccc(C2=C(c3ccc(F)cc3)CCC2)cc1`: the melting point was 46 to 47 °C.

On to `COc1cc(C=O)cc2c1OC(C)(C)C2`, for which the melting point lay in the range of 58 to 59 °C. `CC(=O)c1ccc2c(c1)OC(C(N)=O)CO2` (stereo not drawn): the melting point was determined as 212 °C. Take `O=c1[nH]c(-c2ccccc2)c(-c2ccccc2)o1`: the melting point lay in the range of 158 to 159 °C.

Consider `O=C1CCCC2=C1C(c1ccc(Br)s1)C1=C(CCS1)N2` (stereo not drawn), for which the melting point was above 250 °C.

Molecule `CCNC(=O)c1ccc(-c2ccc3nnn(Cc4cc5cccnc5cc4F)c3n2)cc1Cl` came in with a melting point of 197 to 199 °C. The figure for `CC1(C)CCCC(C)(C)N1c1nc(NCCO)nc(NCCO)n1` is 147 to 148 °C. `CC(C)(c1ccc(O)cc1)c1ccc(N2C(=O)C=CC2=O)cc1` gave a melting point of 168 to 171 °C.

`CCc1c(-c2cc(C)c(O)c(C)c2)[nH]c2ccccc12`: the melting point is 107 °C.

`CS(=O)(=O)NCCCCCCCCCCCCn1c2c(c3ccccc3c1=O)C(=O)c1ccccc1-2`: the melting point was in the range of 113 to 117 °C.

Turning to `CC(=O)SCC(CC(C)C)C(=O)Nc1cccc(C(=O)O)c1` (stereo not drawn), the melting point lay in the range of 184 to 186 °C. The figure for `O=C(C=Cc1ccc(Cl)cc1Cl)c1ccccc1[N+](=O)[O-]` is 130 to 132 °C. With `Fc1cccc(-c2cn([C@H]3CN4CCC3CC4)nn2)c1` the figure was 120 °C; with `CS(=O)(=O)N(Cc1cccnc1)c1ccc(F)cc1`, 112 to 113 °C; with `Cc1cc2nc(Cl)c(Cl)nc2c([N+](=O)[O-])c1Cl`, 121 to 122 °C. The figure for `COC(c1cc(C)no1)c1ccccc1COc1cc(Cl)ccc1Cl` (stereo not drawn) is 78.5 to 79.5 °C; for `CCCCc1ccc(C=Nc2ccc(C#N)cc2)cc1` it is 38.1 to 38.7 °C; for `CNCNc1cc(C(N)=O)ccc1C(C)(C)C` it is 143 to 144 °C. The molecule `Cc1nc2c(OCc3c(Cl)ccc(N(C)C)c3Cl)cccn2c1Br` displayed a melting point of 120 to 122 °C. The figure for `CC(C)C[C@H](NC(=O)OCCC1c2ccccc2-c2ccccc21)C(=O)O` is 42 to 43 °C.

`CCOCc1cc2c(cc1C#Cc1ccccc1)NC(=O)CC(c1cccc(C#N)c1)=N2` yielded a melting point of 229 °C. With `COc1ccc(Cn2ccn(CC(=O)c3ccc(OC)c(OC4CCCC4)c3)c2=O)cc1`, the melting point is 106 °C.

`CCc1nc2c(N)nc3ccc(OCc4ccccc4)cc3c2n1CCCCNS(C)(=O)=O`: the melting point lay in the range of 186 to 191 °C. The figure for `C#CCSC1NN=C(c2ccncc2)N1c1ccccc1` (stereo not drawn) is 151 to 152 °C.

Molecule `CC1CN(CC(N)=O)C(=O)N1` (stereo not drawn) had a melting point of 124 °C. In turn, `CCCCn1nc2c(N)nc3ccccc3c2c1CC` gave a melting point of 215 to 216 °C. With `CC(C)c1cc(C(=O)O)c(N)c(C(C)C)c1` the figure was 114 to 116 °C; with `O=C1C(c2c[nH]c3ccccc23)C(c2c[nH]c3ccccc23)C(=O)N1Cc1ccccc1` (stereo not drawn), 112 to 115 °C. The figure for `CN1CC(CN2CC(=O)NC2=O)CC2c3cccc4c3c(cn4C)CC21` (stereo not drawn) is 292 to 294 °C; for `CN(C)C(=O)COc1ccc2c(c1)C[C@@H](NC[C@H](O)c1ccc(O)c(CO)c1)CC2` it is 175 to 176 °C; for `Oc1nc(O)c2c(n1)CCCS2` it is above 300 °C. With `CCCCCCCCCCCCCCCc1cc2cccc(C(=O)O)c2[nH]1` the figure was 93 to 99 °C.

In turn, `N#Cc1cc(N=Nc2cc(Cl)ccc2Cl)ccc1N` gave a melting point of 250 °C.

`Cc1cc(C2CCN(S(=O)(=O)C3(C(=O)NO)CCOCC3)CC2)ccc1-c1cccc(OC[C@H](O)CO)c1` showed a melting point of 141 to 145 °C. The figure for `CCOC(=O)COc1ccc(C2C(C(=O)OCC)=C(C)N(C)C(C)=C2C(=O)OCC)cc1OC` is 84 to 85 °C; for `COc1ccc2oc(Cn3cnc4c(N)ncnc43)c(-c3ccccc3)c(=O)c2c1` it is 197 to 198 °C.

The molecule `COc1c(NC(=O)c2ccc(C)c(-n3cc(C(=O)NCC4CCN(C)CC4)nn3)c2)cc(C(C)(C)C)cc1NS(C)(=O)=O` showed a melting point of 202 to 203 °C.

Molecule `N#CC(=Cc1ccc(Cl)cc1Cl)n1cncn1` had a melting point of 156 to 160 °C. With `Oc1ccc([C@H]2CC[C@@H](NCCOc3ccccc3)CC2)cc1` the figure was 149 to 154 °C. In turn, `Cc1cc(C(=O)c2ccccc2)c(-n2c(C)nnc2CNC(=O)c2cc3ccccc3[nH]2)s1` displayed a melting point of 231 to 233 °C. With `O=C(Nc1cc(Cl)ccc1O)c1cc(Cl)cc(Cl)c1` the figure was 251 to 252 °C. Turning to `Oc1ccc2c(c1)OCC(c1cccc(F)c1)C2c1ccc(OCCN2CCCC2)cc1` (stereo not drawn), the melting point was 146 to 150 °C. The figure for `O=C(NC(Cc1ccc(OCc2ccccc2)cc1)C(=O)O)c1cc2ccc(-c3ccc(Cl)cc3)cc2[nH]1` (stereo not drawn) is 202 to 204 °C; for `NC(=O)C(N)c1ccc(Cl)cc1Cl` (stereo not drawn) it is 114 °C; for `Cc1sc2c(Br)c3ccccc3c(-c3cc(C(C)C)c(O)c(C(C)C)c3)c2c1C` it is 212 to 216 °C. As to `Cc1cccc(NC(=O)CN2CCN(c3ccccc3[N+](=O)[O-])CC2)c1`, the melting point was in the range of 172 to 175 °C. With `CN1CCN(c2ccc3nc(-c4ccc(F)cc4)c(-c4ccncc4)n3n2)CC1` the figure was 250 °C; with `CC=CCn1c(C(=O)c2cc(C)cc(C#N)c2)c(C(C)C)c(=O)[nH]c1=O`, 177 to 178 °C; with `CCCc1nc2c(N)nc3ccccc3c2n1CCC(=O)N(C)C`, 207 to 209 °C. With `COc1cccc([C@H]2O[C@H](CC(=O)Nc3cc(CCCCC(=O)O)ccc3F)C(=O)N(CC(C)(C)CO)c3ccc(Cl)cc32)c1OC` the figure was 115 to 118 °C; with `NC(=O)NCc1ccc2ccn(C3CCN(CCc4ccc(F)cc4)CC3)c2c1`, 172 to 173 °C. As for `COC(=O)c1ccc2c(c1)N(C(=O)c1ccc(-c3ccccc3C(F)(F)F)c(C)c1)Cc1cccn1C2`, the melting point lay in the range of 180 to 182 °C. With `CCCc1c(OCCCCCOc2cc(OCCCC(=O)OC)ccc2CCC(=O)OC)ccc2c1OCCC2=O` the figure was 58 to 59 °C; with `O=C1NC(c2c[nH]c3ccccc23)C(=O)N1CCCN1CCCCC1` (stereo not drawn), 233 to 234 °C. With `CSC(=NC#N)N(C)N=Cc1ccccc1` the figure was 132 to 133 °C; with `CCOC(=O)c1ncn2c1CN(C)C(=O)c1c(F)cccc1-2`, 196 to 198 °C. With `CCCCCCOc1c(F)cc(F)c(C(N)=O)c1F` the figure was 89 to 90 °C; with `CCc1nc(C(=O)O)c(CC)c(C)c1C(c1cc(F)ccc1F)S(=O)(=O)c1ccc(F)cc1` (stereo not drawn), 151 to 153 °C. The molecule `COc1cc(OCCCCc2cn(-c3ccc(C(F)(F)F)cn3)nc2C(C)C)ccc1CCC(=O)O` displayed a melting point of 125 to 126 °C.

In the case of `CN1C(O)=C(C(=O)NCc2ccccc2)c2ccsc2S1(=O)=O`, the melting point was 176 to 177 °C. `OC(CCCN1CCN(c2ncc(F)cn2)CC1)c1ccc(F)c2ccccc12` (stereo not drawn) came in with a melting point of 129 to 131 °C. The figure for `O=C(NCCN1CCC2(CC1)C(=O)NCN2c1ccccc1)c1ccco1` is 196 °C; for `Cc1c(C(N)=O)oc2c(C(=O)NCCCN3CCN(c4cc(Cl)ccc4O)CC3)cccc2c1=O` it is 116 to 158 °C; for `C=CC(=O)OCCCNC(=O)CCc1cc(-n2nc3ccccc3n2)c(O)c(C(C)(C)C)c1` it is 87 to 89 °C.

`O=[N+]([O-])c1c(NCCO)cc(C(O)CSCC(O)c2cc(NCCO)c([N+](=O)[O-])c(NCCO)c2)cc1NCCO` (stereo not drawn) showed a melting point of 157 °C.

On to `O=C(NNS(=O)(=O)c1ccccc1)c1ccc(Cl)cc1Cl`, for which the melting point fell in the range of 168 to 170 °C. The molecule `Brc1ccc2cc(Nc3ccccc3)ccc2c1` yielded a melting point of 126 to 128 °C. With `OC(CCc1ccoc1)c1cnc2sc3c(n12)CCCCC3` (stereo not drawn) the figure was 153 to 155 °C; with `C=CCNc1nc(NCC(C)(C)C)c2scc(C)c2n1`, 90 to 92 °C.

For the molecule `CSc1ccc(-c2c(Cl)nc(Cl)nc2-c2ccc(Cl)cc2)cc1`, the melting point is 144 to 146 °C. In turn, `CCC(=O)NN=C(c1ccc(Cl)cc1)c1ccc(OS(C)(=O)=O)cc1` had a melting point of 128 to 144 °C. The figure for `OCc1cnc2cc(C(F)(F)F)ccc2c1O` is 302 to 304 °C. The figure for `CCOC(=NC(=O)Nc1ccc(Cl)cc1)N1Cc2ccccc2-c2ccccc2C1` is 154 to 156 °C; for `O=C(Cc1ccc(Cl)c(Cl)c1)NC1N=C(C2CC2)c2ccccc2N(CC(F)(F)F)C1=O` (single isomer, unassigned; (+)) it is 193 to 194 °C; for `O=C(O)c1ccc(Cl)c2c1[nH]c1ccccc12` it is 280 °C. `CCc1nc2c(C)cc(C)nc2n1Cc1ccc(C2(C(=O)O)Cc3ccccc3C2)s1`: the melting point was 243 to 244 °C. In turn, `CC(C)(C)OC(=O)NCc1ccnc(Cl)n1` came in with a melting point of 86 to 88 °C.

In turn, `Nc1nc2ccc(Cc3cccs3)cc2s1` yielded a melting point of 188 to 191 °C.

For `O=c1[nH]ncnc2c1ccc1ncnc12`, the melting point fell in the range of 266 to 268 °C.

The molecule `COc1nccc2c(=O)n(C)c(N3C=CC(OC4CCN(C5CCC5)CC4)=NC3)nc12` showed a melting point of 199 to 200 °C. With `COc1cc2c(c3c1OC(C)(C)C3)C(c1cccc(SCC(N)=O)c1)=NC(C)(C)C2` the figure was 118 to 120 °C; with `Cc1cccc2c1C(=O)c1c-2csc1N`, 196 to 198 °C; with `Cc1nc(CO)sc1-c1ccnc(Nc2ccc(N3CCCCC3)cc2)n1`, 194 to 195 °C. Molecule `CCCc1ccc(C(=O)O)c(F)c1F` returned a melting point of 69 °C. `COCCc1cc(O)ccc1N` returned a melting point of 82 °C. With `N#CC(C(=O)Nc1ccccc1)C(=O)c1nn(-c2ccccc2)c2c1COc1ccccc1-2` (stereo not drawn) the figure was 280 to 282 °C.

For the origin of these results see a melting point compilation (Tetko et al.; mined from patent text by program, amines drawn as free bases though some values may be those of a salt).
